Data set [1] relates to BXPC-3. Kind of data set: Cytotoxicity against human BXPC-3 cells assessed as inhibition of cell growth measured after 72 hrs by SRB assay. In kind it is functional, cell-based. The conditions noted are these: BXPC-3, 72 h.
Data set [2] relates to MCF7. Put plainly: Cytotoxicity against human MCF7 cells assessed as inhibition of cell growth measured after 72 hrs by MTT assay. Format: functional, cell-based. The conditions noted are these: MCF7, 72 h. (In general: Tetrazolium assays rely on reduction of a dye to a coloured formazan, in cell work by metabolically active cells.)
The subject of data set [3] is PC-3. Put plainly: Cytotoxicity against human PC-3 cells assessed as inhibition of cell growth measured after 72 hrs by MTT assay. In kind it is functional, cell-based. The following applies: PC-3, 72 h.
Data set [4] is described as follows: Half life of the compound. Format: physicochemical.

*1 amine or outer side, *2 acyl side, *3 side chain or, on linkers, in order; H or OH if unused. Where a SMILES comes first, the peptide text is derived from it. The star is where a group is joined. X1 = O=c1nc(N*)ccn1[C@@H]1O[C@H](CO)[C@@H](O)C1(F)F; Suc = O=C(CCC(=O)[*:2])[*:1] A value given as a limit tells only on which side of the number the result lay.

One may read the IC50 as the midpoint of a concentration-inhibition curve. For orientation: half-life means the time needed for the level to fall by half in the phase considered. Read a low half-life as fast loss.

Regarding H-KLPVMW-NH2, the IC50 in data set [1], in data set [2] and in data set [3] was more than 1000 nM throughout.

As to `Nc1ccn([C@@H]2O[C@H](CO)[C@@H](O)C2(F)F)c(=O)n1` [GEMCITABINE], the IC50 in data set [1] was 130 nM; in data set [2], 1.4 nM; in data set [3], 74 nM. The half-life in data set [4] was 8 min.

With `CN(C)C(=N)NC(=N)N` [METFORMIN], the IC50 was determined as 9.9 nM in data set [2] and 189 nM in data set [3].

Consider `CC(C)C[C@H](NC(=O)[C@@H](NC(=O)[C@@H]1CCCN1C(=O)[C@@H](NC(=O)[C@H](Cc1c[nH]c2ccccc12)NC(=O)CCC(=O)Nc1ccn([C@@H]2O[C@H](CO)[C@@H](O)C2(F)F)c(=O)n1)C(C)C)[C@@H](C)O)C(=O)N[C@@H](CCCCN)C(N)=O` ({X1-Suc}-WVPTLK-NH2), for which the figures for the IC50 in data set [1], in data set [2] and in data set [3] were 200 nM, 4 nM and 14 nM, respectively.

With `CSCC[C@H](NC(=O)[C@@H](NC(=O)[C@@H]1CCCN1C(=O)[C@H](CC(C)C)NC(=O)[C@H](CCCCN)NC(=O)CCC(=O)Nc1ccn([C@@H]2O[C@H](CO)[C@@H](O)C2(F)F)c(=O)n1)C(C)C)C(=O)N[C@@H](Cc1c[nH]c2ccccc12)C(N)=O` ({X1-Suc}-KLPVMW-NH2), the figures for the IC50 in data set [1], in data set [2] and in data set [3] were 170 nM, 6.9 nM and more than 1000 nM, respectively.

With `CSCC[C@H](NC(=O)[C@@H](NC(=O)[C@@H]1CCCN1C(=O)[C@H](CC(C)C)NC(=O)[C@H](CCCCN)NC(=O)[C@H](Cc1c[nH]c2ccccc12)NC(=O)CCC(=O)Nc1ccn([C@@H]2O[C@H](CO)[C@@H](O)C2(F)F)c(=O)n1)C(C)C)C(N)=O` ({X1-Suc}-WKLPVM-NH2), the IC50 in data set [1] turned out to be 180 nM; in data set [2], 5.1 nM; in data set [3], 15 nM.

On to H-WVPTLK-NH2, for which the IC50 in data set [1], in data set [2] and in data set [3] was more than 1000 nM throughout.

Consider `CSCC[C@H](NC(=O)[C@@H](NC(=O)[C@@H]1CCCN1C(=O)[C@H](CC(C)C)NC(=O)[C@H](CCCCN)NC(=O)[C@@H](N)Cc1c[nH]c2ccccc12)C(C)C)C(N)=O`, for which the values for the concentration for half-maximal inhibition (IC50) in data set [1], in data set [2] and in data set [3] were more than 1000 nM, 223 nM and more than 1000 nM, respectively.

On to `CC/C(=C(\c1ccccc1)c1ccc(OCCN(C)C)cc1)c1ccccc1` [TAMOXIFEN], for which, in data set [3], the IC50 is more than 1000 nM.
